Measurements as given in ChEMBL document CHEMBL4024724, “Synthesis of new 3-(2-mercapto-4-oxo-4H-quinazolin-3-yl)-benzenesulfonamides with strong inhibition properties against the tumor associated carbonic anhydrases IX and XII” (Bioorg Med Chem, 2017).

Target: Carbonic anhydrase 9 (Homo sapiens, UniProt Q16790)
Assay: Inhibition of recombinant human carbonic anhydrase 9 incubated for 15 mins prior to testing by stopped flow CO2 hydration assay

| Structure (SMILES) | Ki |
| --- | --- |
| COc1ccc2nc(S)n(-c3cccc(S(N)(=O)=O)c3)c(=O)c2c1 | 13 nM |
| COc1cc2c(=O)n(-c3cccc(S(N)(=O)=O)c3)c(S)nc2c(OC)c1OC | 20.1 nM |
| Cc1ccc2nc(S)n(-c3cccc(S(N)(=O)=O)c3)c(=O)c2c1 | 58.9 nM |
| COc1cc2nc(S)n(-c3cccc(S(N)(=O)=O)c3)c(=O)c2cc1OC | 19.8 nM |
| NS(=O)(=O)c1cccc(-n2c(S)nc3cc(Br)ccc3c2=O)c1 | 16.8 nM |
| NS(=O)(=O)c1cccc(-n2c(S)nc3c(Br)cccc3c2=O)c1 | 4 nM |
| COc1ccc2c(=O)n(-c3cccc(S(N)(=O)=O)c3)c(S)nc2c1 | 25 nM |
| Cc1cccc2c(=O)n(-c3cccc(S(N)(=O)=O)c3)c(S)nc12 | 25.2 nM |
| COc1cccc2c(=O)n(-c3cccc(S(N)(=O)=O)c3)c(S)nc12 | 15.6 nM |
| Cc1cc2nc(S)n(-c3cccc(S(N)(=O)=O)c3)c(=O)c2cc1C | 34.5 nM |
| NS(=O)(=O)c1cccc(-n2c(S)nc3c(Cl)cccc3c2=O)c1 | 9.5 nM |

The next lines start with the values.

| Ki | Structure (SMILES) |
| --- | --- |
| 76.1 nM | NS(=O)(=O)c1cccc(-n2c(S)nc3ccccc3c2=O)c1 |
| 2.7 nM | NS(=O)(=O)c1cccc(-n2c(S)nc3cc(F)ccc3c2=O)c1 |
| 4.4 nM | NS(=O)(=O)c1cccc(-n2c(S)nc3ccc(F)cc3c2=O)c1 |
| 15.4 nM | NS(=O)(=O)c1cccc(-n2c(S)nc3cc(Cl)ccc3c2=O)c1 |
| 45.1 nM | NS(=O)(=O)c1cccc(-n2c(S)nc3ccc(Cl)cc3c2=O)c1 |
| 1.5 nM | NS(=O)(=O)c1cccc(-n2c(S)nc3ccc(I)cc3c2=O)c1 |
